In patent publication US9517227B2, “Dihydropyrazoles” (Merck Patent GmbH, priority 2011, dated 2016):

Legend:
FSHR = target: T1, FSHR (Homo sapiens, UniProt P23945); assay: EC50 of cyclic AMP production in CHO FSHR cells + EC20 FSH (Assay A); assay type: cell-based; conditions: CHO-FSHR-LUC cells, 0.265 pM FSH (EC20), cAMP HTRF, 1 h
T1 construct: expressed in transfected cells; host or cells: CHO (Cho-FSHR-LUC-1-1-43)
T1 sequence (P23945 18-695): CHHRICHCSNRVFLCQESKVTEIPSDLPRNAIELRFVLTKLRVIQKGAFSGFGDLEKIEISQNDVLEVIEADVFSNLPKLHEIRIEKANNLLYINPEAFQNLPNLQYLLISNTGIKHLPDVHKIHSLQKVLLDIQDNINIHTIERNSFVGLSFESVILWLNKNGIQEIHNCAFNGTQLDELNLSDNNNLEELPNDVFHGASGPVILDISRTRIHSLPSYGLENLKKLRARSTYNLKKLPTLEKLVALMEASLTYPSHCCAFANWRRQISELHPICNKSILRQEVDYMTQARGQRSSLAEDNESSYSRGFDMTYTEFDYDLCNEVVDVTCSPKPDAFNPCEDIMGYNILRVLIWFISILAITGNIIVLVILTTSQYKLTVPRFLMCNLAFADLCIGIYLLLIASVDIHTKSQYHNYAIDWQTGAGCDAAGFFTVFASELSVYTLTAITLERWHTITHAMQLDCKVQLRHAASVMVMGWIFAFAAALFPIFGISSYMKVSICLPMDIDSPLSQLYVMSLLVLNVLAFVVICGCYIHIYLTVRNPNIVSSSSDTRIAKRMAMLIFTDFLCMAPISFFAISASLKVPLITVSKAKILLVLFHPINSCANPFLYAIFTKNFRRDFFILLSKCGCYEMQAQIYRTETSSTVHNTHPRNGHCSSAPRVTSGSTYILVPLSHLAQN
Protocol: EC50 of Cyclic AMP Production in CHO FSHR Cells+EC20 FSH (Assay A)
2500 Cho-FSHR-LUC-1-1-43 cells were plated per well in 5 μl of phenol red free DMEM/F12+1% FBS. Cells were plated in 384 well, solid white low volume plates (Greiner 784075) by Multidrop. Cells were assayed by adding 100 μl of 2×EC20 FSH/IBMX in DMEM/F12+0.1% BSA) by Multidrop to 2 μl of test compound stamped in 384 well plates (compounds are diluted 1:50). The final FSH concentration was 0.265 pM, and the final IBMX concentration was 200 μM. The compound plate map was as follows: Column 1: 2 μl of DMSO; Column 2: 2 μl of DMSO; Columns 3-12 and 13-24: 2 μl of test compound, diluted 1:4 in 100% DMSO, or 2 μl of FSH, diluted 1:4 in DMEM/F12+0.1% BSA. The starting concentration for FSH was 50 nM (final concentration was 0.5 nM). Furthermore, Column 23 contained 2 μl of EC100 FSH reference (100×) (diluted in DMEM/F12+0.1% BSA) at a final concentration of 0.5 nM, and Column 24 contained 2 μl of 1 mM AS707664/2 reference compound 2. 5 μl of compound+EC20 FSH mixture were transferred to cell plates (1:2 dilution into 5 μl of cell media). The plates were incubated at 37° C. for 1 h. 10 μl of mixed HTRF (CisBio #62AM4PEC) reagents were added per well and incubated at room temperature for 1 h. The plates were read on Envision using the cAMP HTRF—low volume 384 well protocol. The readout was the calculated fluorescence ratio (665 nm/620 nm).

[1] = target: T2, follicle-stimulating hormone (FSH) receptor (Rattus norvegicus, UniProt P20395); assay: Rat granulosa EC50 FSH (Assay B); assay type: cell-based; conditions: rat granulosa cells; for EC50: per Yanofsky et al. 2006
T2 construct: endogenous in cells; host or cells: rat granulosa cells
T2 sequence (P20395 18-692): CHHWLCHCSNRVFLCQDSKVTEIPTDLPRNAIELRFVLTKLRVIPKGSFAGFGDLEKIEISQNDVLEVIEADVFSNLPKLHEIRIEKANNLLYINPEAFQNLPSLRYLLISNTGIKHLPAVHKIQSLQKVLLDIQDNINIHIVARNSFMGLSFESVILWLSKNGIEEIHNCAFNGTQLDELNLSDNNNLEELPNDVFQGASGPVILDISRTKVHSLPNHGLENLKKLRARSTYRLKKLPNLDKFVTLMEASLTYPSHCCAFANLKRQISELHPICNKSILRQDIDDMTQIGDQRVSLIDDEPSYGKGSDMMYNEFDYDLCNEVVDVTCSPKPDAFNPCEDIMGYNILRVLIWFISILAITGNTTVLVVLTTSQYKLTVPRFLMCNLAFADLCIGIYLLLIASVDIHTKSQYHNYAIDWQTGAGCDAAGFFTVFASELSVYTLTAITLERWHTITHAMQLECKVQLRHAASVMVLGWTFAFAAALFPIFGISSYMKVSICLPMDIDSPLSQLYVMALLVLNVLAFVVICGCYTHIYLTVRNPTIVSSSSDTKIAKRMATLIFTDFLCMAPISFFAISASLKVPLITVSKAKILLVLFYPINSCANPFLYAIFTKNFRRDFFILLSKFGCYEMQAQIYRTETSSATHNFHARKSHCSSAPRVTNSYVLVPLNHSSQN
Protocol: Rat Granulosa EC50 FSH (Assay B)
The assay was performed pursuant to the teaching of Yanofsky et al. (2006) Allosteric activation of the follicle-stimulating hormone (FSH) receptor by selective, nonpeptide agonists. JBC 281(19): 13226-13233, which is incorporated by reference in the disclosure of the invention.

COc1ccc(C2=NN(C(=O)c3ccc(F)c(C(F)(F)F)c3)C(C)(C)C2)cc1OC [Compound 236, [3-(3,4-Dimethoxy-phenyl)-5,5-dimethyl-4,5-dihydro-pyrazol-1-yl]-(4-fluoro-3-trifluoromethyl-phenyl)-methanone]
EC50 (FSHR): 25.3 µM
EC50 [1]: 1.73 µM

COc1ccc(C2=NN(C(=O)c3ccc4c(c3)OCO4)CC2)cc1OC [Compound 3]
EC50 (FSHR): 40.3 µM
EC50 [1]: 0.656 µM

COc1ccc(C2=NN(C(=O)c3cccc(Oc4ccccc4)c3)CC2)cc1OC [Compound 70]
EC50 (FSHR): 39 µM
EC50 [1]: 0.11 µM

COc1ccc(C2=NN(C(=O)c3cccc(C#N)c3)C(C)(C)C2)cc1OC [Compound 132, 3-[3-(3,4-Dimethoxy-phenyl)-5,5-dimethyl-4,5-dihydro-pyrazole-1-carbonyl]-benzonitrile]
EC50 (FSHR): 41.5 µM
EC50 [1]: 0.025 µM

CCc1cccc(C(=O)N2CCC(c3ccc(OC)c(OC)c3)=N2)c1 [Compound 93]
EC50 (FSHR): 27 µM
EC50 [1]: 0.726 µM

COc1ccc(C2=NN(C(=O)c3ccc(Oc4ccccc4)cc3)C(C)(C)C2)cc1OC [Compound 230, [3-(3,4-Dimethoxy-phenyl)-5,5-dimethyl-4,5-dihydro-pyrazol-1-yl]-(4-phenoxy-phenyl)-methanone]
EC50 (FSHR): 2.2 µM
EC50 [1]: 0.128 µM

COc1ccc(C2=NN(C(=O)c3cccc(F)c3)CC2)cc1OC [Compound 1]
EC50 (FSHR): 16.7 µM
EC50 [1]: 0.878 µM

COc1ccc(C2=NN(C(=O)c3cccc(OC(C)(F)F)c3)CC2)cc1OC [Compound 67]
EC50 (FSHR): 21 µM
EC50 [1]: 0.814 µM

COc1ccc(C2=NN(C(=O)c3cccc(Cl)c3)CC2)cc1OC [Compound 62]
EC50 (FSHR): 6.49 µM
EC50 [1]: 0.0981 µM

COc1ccc(C2=NN(C(=O)c3cccc(F)c3F)CC2)cc1OC [Compound 77]
EC50 (FSHR): 8.61 µM
EC50 [1]: 0.729 µM

COc1ccc(C2=NN(C(=O)c3cccc(C)c3)CC2)cc1OC [Compound 65]
EC50 (FSHR): 21 µM
EC50 [1]: 5.09 µM

COc1ccc(C2=NN(C(=O)c3cc(F)c(F)c(F)c3F)CC2)cc1OC [Compound 80]
EC50 (FSHR): 28 µM
EC50 [1]: 1.19 µM

COc1ccc(C2=NN(C(=O)c3ccc(C)cc3)C(C)(C)C2)cc1OC [Compound 235, [3-(3,4-Dimethoxy-phenyl)-5,5-dimethyl-4,5-dihydro-pyrazol-1-yl]-p-tolyl-methanone]
EC50 (FSHR): 35.7 µM
EC50 [1]: 0.538 µM

COc1ccc(C2=NN(C(=O)c3ccc(F)c(Cl)c3)C(C)(C)C2)cc1OC [Compound 237, (3-Chloro-4-fluoro-phenyl)-[3-(3,4-dimethoxy-phenyl)-5,5-dimethyl-4,5-dihydro-pyrazol-1-yl]-methanone]
EC50 (FSHR): 35 µM
EC50 [1]: 0.598 µM

COc1ccc(C2=NN(C(=O)c3cccc(C(F)(F)F)c3)C(C)(C)C2)cc1OC [Compound 234, [3-(3,4-Dimethoxy-phenyl)-5,5-dimethyl-4,5-dihydro-pyrazol-1-yl]-(3-trifluoromethyl-phenyl)-methanone]
EC50 (FSHR): 22.4 µM
EC50 [1]: 0.699 µM

COc1ccc(C2=NN(C(=O)c3cccc(Br)c3)C(C)(C)C2)cc1OC [Compound 233, (3-Bromo-phenyl)-[3-(3,4-dimethoxy-phenyl)-5,5-dimethyl-4,5-dihydro-pyrazol-1-yl]-methanone]
EC50 (FSHR): 27.8 µM
EC50 [1]: 0.216 µM

COc1ccc(C2=NN(C(=O)[C@@H](OC)c3ccccc3)CC2)cc1OC [Compound 292]
EC50 (FSHR): 29 µM
Assay B: value given in % (rat granulosa) ([1]; meaning of % not stated): 186.00%
